Results: BindingDB's records for PubMed 36395995 (University of Jinan, 2023)

Target: Maltase-glucoamylase (Homo sapiens, UniProt O43451)
Assay: Inhibition of alpha-glucosidase (unknown origin)

Maltase-glucoamylase, sequence (O43451 whole entry): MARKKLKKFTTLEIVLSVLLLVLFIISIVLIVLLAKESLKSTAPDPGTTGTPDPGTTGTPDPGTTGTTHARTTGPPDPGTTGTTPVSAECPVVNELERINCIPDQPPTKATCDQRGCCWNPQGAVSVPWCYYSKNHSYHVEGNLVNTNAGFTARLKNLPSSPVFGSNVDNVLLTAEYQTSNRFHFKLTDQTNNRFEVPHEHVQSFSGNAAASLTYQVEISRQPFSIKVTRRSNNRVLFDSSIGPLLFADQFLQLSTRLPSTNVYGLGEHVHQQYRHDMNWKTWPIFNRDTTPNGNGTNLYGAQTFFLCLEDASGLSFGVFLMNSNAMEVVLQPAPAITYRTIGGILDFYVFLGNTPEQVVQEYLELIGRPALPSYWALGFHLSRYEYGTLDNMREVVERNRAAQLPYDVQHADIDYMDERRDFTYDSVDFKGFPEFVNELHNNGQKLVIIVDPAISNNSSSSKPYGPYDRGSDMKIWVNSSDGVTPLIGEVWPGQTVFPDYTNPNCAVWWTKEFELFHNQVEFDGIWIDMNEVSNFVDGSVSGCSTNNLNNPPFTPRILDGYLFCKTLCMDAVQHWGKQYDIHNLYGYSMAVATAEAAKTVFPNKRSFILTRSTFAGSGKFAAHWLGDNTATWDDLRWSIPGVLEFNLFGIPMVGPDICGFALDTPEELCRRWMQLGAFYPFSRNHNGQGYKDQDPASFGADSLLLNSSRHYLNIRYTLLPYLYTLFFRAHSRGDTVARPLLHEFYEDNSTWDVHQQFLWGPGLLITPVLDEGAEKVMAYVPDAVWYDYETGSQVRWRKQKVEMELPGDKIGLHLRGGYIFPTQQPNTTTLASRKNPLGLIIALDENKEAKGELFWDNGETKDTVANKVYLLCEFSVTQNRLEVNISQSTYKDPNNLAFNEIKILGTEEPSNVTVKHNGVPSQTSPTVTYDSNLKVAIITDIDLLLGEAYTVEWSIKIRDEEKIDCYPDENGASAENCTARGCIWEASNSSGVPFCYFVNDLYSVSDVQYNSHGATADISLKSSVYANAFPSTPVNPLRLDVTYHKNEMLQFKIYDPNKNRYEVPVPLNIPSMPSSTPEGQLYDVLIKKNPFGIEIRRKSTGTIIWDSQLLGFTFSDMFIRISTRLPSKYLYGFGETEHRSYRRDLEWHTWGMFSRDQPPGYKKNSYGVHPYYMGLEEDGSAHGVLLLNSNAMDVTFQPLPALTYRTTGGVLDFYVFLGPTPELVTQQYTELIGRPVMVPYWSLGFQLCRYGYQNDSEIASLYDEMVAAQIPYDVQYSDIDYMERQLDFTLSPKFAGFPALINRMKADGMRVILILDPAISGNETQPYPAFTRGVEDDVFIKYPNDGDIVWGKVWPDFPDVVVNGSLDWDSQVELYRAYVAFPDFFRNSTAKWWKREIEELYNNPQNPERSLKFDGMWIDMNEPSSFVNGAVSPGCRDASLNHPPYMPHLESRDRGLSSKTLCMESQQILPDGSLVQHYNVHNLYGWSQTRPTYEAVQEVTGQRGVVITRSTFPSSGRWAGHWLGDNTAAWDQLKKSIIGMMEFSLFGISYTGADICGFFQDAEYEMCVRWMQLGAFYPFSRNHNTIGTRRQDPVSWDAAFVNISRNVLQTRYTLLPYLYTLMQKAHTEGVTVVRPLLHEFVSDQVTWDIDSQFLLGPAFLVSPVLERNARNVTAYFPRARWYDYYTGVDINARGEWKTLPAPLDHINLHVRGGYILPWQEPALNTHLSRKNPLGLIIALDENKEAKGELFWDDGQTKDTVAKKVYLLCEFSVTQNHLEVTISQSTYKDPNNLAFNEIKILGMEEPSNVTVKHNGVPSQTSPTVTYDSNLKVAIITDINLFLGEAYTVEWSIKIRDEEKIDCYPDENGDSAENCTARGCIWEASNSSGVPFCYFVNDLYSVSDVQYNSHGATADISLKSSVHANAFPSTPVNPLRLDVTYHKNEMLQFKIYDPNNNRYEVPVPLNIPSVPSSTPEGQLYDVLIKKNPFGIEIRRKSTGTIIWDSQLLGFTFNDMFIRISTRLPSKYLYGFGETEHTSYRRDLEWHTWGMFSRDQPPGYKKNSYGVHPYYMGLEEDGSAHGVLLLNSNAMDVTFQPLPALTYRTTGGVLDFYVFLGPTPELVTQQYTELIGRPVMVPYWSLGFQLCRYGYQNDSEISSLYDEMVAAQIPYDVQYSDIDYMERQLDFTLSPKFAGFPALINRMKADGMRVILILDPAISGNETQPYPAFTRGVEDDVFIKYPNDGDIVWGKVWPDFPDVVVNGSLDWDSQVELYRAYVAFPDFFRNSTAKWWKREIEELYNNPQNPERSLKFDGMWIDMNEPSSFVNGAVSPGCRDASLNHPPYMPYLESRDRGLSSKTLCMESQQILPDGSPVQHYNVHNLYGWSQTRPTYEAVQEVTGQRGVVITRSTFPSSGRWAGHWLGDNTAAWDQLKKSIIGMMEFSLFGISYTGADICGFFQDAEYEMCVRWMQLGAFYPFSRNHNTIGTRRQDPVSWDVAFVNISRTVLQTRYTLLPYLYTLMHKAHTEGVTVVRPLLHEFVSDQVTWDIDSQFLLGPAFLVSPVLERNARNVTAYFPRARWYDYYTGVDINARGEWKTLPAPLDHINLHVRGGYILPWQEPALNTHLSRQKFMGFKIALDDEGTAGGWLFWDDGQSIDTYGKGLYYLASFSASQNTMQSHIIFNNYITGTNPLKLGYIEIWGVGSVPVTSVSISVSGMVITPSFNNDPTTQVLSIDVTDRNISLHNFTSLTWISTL

Row | Compound | IC50
1 | COc1ccc(CNC(=O)c2c(NC(=O)c3cccnc3)sc3c2CCC3)cc1 | 87.6 µM
2 | O=C(Nc1sc2c(c1C(=O)NCc1ccccc1)CCC2)c1cccnc1 | 82.5 µM
3 | COc1cc(CNC(=O)c2c(NC(=O)c3cccnc3)sc3c2CCC3)ccc1O | 93.6 µM
4 | COc1ccc(CNC(=O)c2c(NC(=O)c3cccnc3)sc3c2CCCC3)cc1 | 30.2 µM
5 | O=C(Nc1sc2c(c1C(=O)NCc1ccccc1)CCCC2)c1cccnc1 | 45.3 µM
6 | O=C(Nc1sc2c(c1C(=O)NCc1ccccn1)CCCC2)c1cccnc1 | 64.1 µM
7 | O=C(Nc1sc2c(c1C(=O)NCc1cccnc1)CCCC2)c1cccnc1 | 507 µM
8 | COc1cc(CNC(=O)c2c(NC(=O)c3cccnc3)sc3c2CCCC3)ccc1O | 9.9 µM
9 | COC(=O)c1ccc(CNC(=O)c2c(NC(=O)c3cccnc3)sc3c2CCCC3)cc1 | 87.8 µM
10 | O=C(Nc1sc2c(c1C(=O)NCc1ccccc1)CCCCC2)c1cccnc1 | 63.4 µM
11 | COc1cc(CNC(=O)c2c(NC(=O)c3cccnc3)sc3c2CCCCC3)ccc1O | 35.4 µM
